The test system of one test is Raji tumor xenografts. The test can be described thus: Raji xenograft in NSG mice treated with inhibitor-preconditioned rituximab CAR-T cells. The format is in vivo. The conditions noted are these: for prolonged median survival compared to vehicle (DMSO)-treated rituximab CAR-T cells: two doses of preconditioned rituximab CAR-T cells. The protocol:
FIG. 2A-C. […] (A) Tumor signal (in photons/sec/cm^2/sr) in individual animals as quantified by bioluminescence imaging. […] Statistical significance was determined by Mann-Whitney U test with Holm-Sidak correction for multiple comparisons. * p<0.05, n.s. not statistically significant. (B) Kaplan-Meier survival curve (top) and table of median survival period in days (bottom). (C) Frequency of human CD45+EGFRt+ cell in peripheral blood collected from mice on day 8 after first dose of T-cell infusion. Statistical significance was determined by two-tailed Student's t test with Sidak correction for multiple comparisons. * p<0.05, ** p<0.01.
In vivo studies. Six- to eight-week-old NOD/SCID/IL-2Rγ^null (NSG) mice were obtained from UCLA Department of Radiation and Oncology. The protocol was approved by UCLA Institutional Animal Care and Used Committee. […] Details of the dose and timing of tumor injection, T-cell injection, and tumor re-challenge are indicated in the text and figures. Tumor progression/regression was monitored with an IVIS Illumina III LT Imaging System (PerkinElmer). Blood samples were harvested via retro-orbital bleeding 3 days post T-cell injection and every 10-13 days thereafter. Mice were euthanized at the humane endpoint. Bone marrow, spleen and liver were collected after euthanasia. Tissues were ground and passed through a 100-μm filter followed by red-blood-cell lysis prior to flow-cytometry analysis.

Test [1] has as its system rituximab CAR-T cells. The test can be described thus: CellTrace Violet proliferation assay without target cells or exogenous cytokines, rituximab CAR-T cells. Format: cell-based, human. The settings on record: 4-day culture, CTV dye, vs vehicle (DMSO).
Experimental: (D) Proliferation of CAR^+ T cells stained with CellTrace Violet (CTV) dye was assayed after a 4-day culture in the absence of target cells or exogenous cytokines. Data shown in the histogram correspond to one of technical triplicates shown in the bar graph. The bars FIG. 1D represent data from, EGFRt, untreated, vehicle, CAL-101, AZD5363, Rapamycin, MYCi975, and Betulin, respectively, from left to right. […] In (B)-(F), results are representative two independent experiments using cells from of two heathy donors. Statistical significance in panels B, C, and D was determined by two-tailed Student's t test with Sidak correction for multiple comparisons. * p<0.05, ** p<0.01, *** p<0.001, n.s. not statistically significant.
For inhibitor analysis, starting on Day 8, T cells were cultured in T-cell media with cytokine support in the presence of 1 μM PI3K8 isoform inhibitor (CAL-101, Apex Biotechnology #A300520)), 1 μM AKT inhibitor (AZD5363, Selleckchem #S8019), 100 nM mTORC1 inhibitor (Rapamycin, LC Laboratories #R-5000), 2 μM c-Myc inhibitor (MYCi975, MedChemExpress #HY-129601), SREBP inhibitor (Betulin, MilliporeSigma #92648), or DMSO as a vehicle control. Each inhibitor molecule was solubilized in DMSO.
Proliferation assay. […] Cultures were passaged as needed, and CTV dilution was analyzed on a MACSQuant VYB flow cytometer after a 4-day co-incubation.
A further test deals with Raji target cells. Nature of the test: 24-hr lysis assay of inhibitor-treated rituximab CD20 CAR-T cells against Raji. The format is cell-based. The settings on record: three E:T ratios, vs vehicle-treated. An excerpt: (§1) FIG. 1A-G. Pharmacological inhibition of PI3K/AKT pathway modulates antigen-independent CAR-T cell activation. (A) Table of pharmacological inhibitors used during ex vivo expansion of rituximab CAR-T cells (left). Simplified schematic of the PI3K/AKT signaling axis where black arrows represent activation (right). (B) Activation marker expression by CAR^+ T cells in the absence of antigen stimulation after 5 days of pharmacological modulation. Data bars indicate the means of technical triplicates±1 S.D. The bars in FIG. 1B represent data from, untreated, vehicle, CAL-101, AZD5363, Rapamycin, MYCi975, and Betulin, respectively, from left to right. (C) TNF-α production CAR^+ T cells in the absence of antigen stimulation as quantified by intracellular flow cytometry. Data bars indicate the means of technical triplicates±1 S.D. The bars in FIG. 1B and FIG. 1C represent data from, untreated, vehicle, CAL-101, AZD5363, Rapamycin, MYCi975, and Betulin, respectively, from left to right. (D) Proliferation of CAR^+ T cells stained with CellTrace Violet (CTV) dye was assayed after a 4-day culture in the absence of target cells or exogenous cytokines. Data shown in the histogram correspond to one of technical triplicates shown in the bar graph. The bars FIG. 1D represent data from, EGFRt, untreated, vehicle, CAL-101, AZD5363, Rapamycin, MYCi975, and Betulin, respectively, from left to right. (E) % distribution of T-cell subtypes in CAR^+ T cells after 5 days of pharmacological modulation. Data bars indicate the means of technical triplicates±1 S.D. (F) Rituximab CAR-T cell fold expansion after 6 days of inhibitor culture was tracked. […] Statistical significance in panels B, C, and D was determined by two-tailed Student's t test with Sidak correction for multiple comparisons. * p<0.05, ** p<0.01, *** p<0.001, n.s. not statistically significant.
Cytotoxicity assay with Raji cells. […] Remaining target cells were quantified by MACSQuant VYB flow cytometer 24-hr post co-incubation.

Test [2] relates to rituximab CAR-T cells. Nature of the test: TNF-α production without antigen stimulation, intracellular flow cytometry, rituximab CAR-T cells. Format: cell-based, human. The conditions noted are these: vs vehicle (DMSO).
Excerpt: as §1, with “cytokines.” for “cytokines. Data shown in the histogram correspond to one of technical triplicates shown in the bar graph. The bars FIG. 1D represent data from, EGFRt, untreated, vehicle, CAL-101, AZD5363, Rapamycin, MYCi975, and Betulin, respectively, from left to right. (E) % distribution of T-cell subtypes in CAR^+ T cells after 5 days of pharmacological modulation. Data bars indicate the means of technical triplicates±1 S.D. (F) Rituximab CAR-T cell fold expansion after 6 days of inhibitor culture was tracked.”, “significant. […]” for “significant.”

For test [3], the system named is rituximab CAR-T cells. Nature of the test: T-cell subtype distribution (CD45RO/CD62L staining), rituximab CAR-T cells. Format: cell-based, human. The conditions noted are these: 5 days of pharmacological modulation, vs vehicle.
Excerpt: as §1, with “cytokines.” for “cytokines. Data shown in the histogram correspond to one of technical triplicates shown in the bar graph. The bars FIG. 1D represent data from, EGFRt, untreated, vehicle, CAL-101, AZD5363, Rapamycin, MYCi975, and Betulin, respectively, from left to right. (E) % distribution of T-cell subtypes in CAR^+ T cells after 5 days of pharmacological modulation. Data bars indicate the means of technical triplicates±1 S.D. (F) Rituximab CAR-T cell fold expansion after 6 days of inhibitor culture was tracked.”, “significant. […]” for “significant.”
(§2) Antibody staining for flow-cytometry analysis. EGFRt expression was measured with biotinylated cetuximab (Eli Lilly; biotinylated in-house), followed by PE-conjugated streptavidin (Jackson ImmunoResearch #016-110-084). CAR expression was quantified by surface epitope staining using anti-Fc (Alexa Fluor 488, Jackson ImmunoResearch #709-546-098). Antigen-independent activation-marker expression of CAR-T cells was evaluated by antibody staining for CD137 (PE/Cy7, clone 4B4-1, BioLegend #309818), and PD-1 (FITC, clone EH12.2H7, BioLegend #329904) on Days 18 (i.e., 18 days after Dynabead addition and 11 days after Dynabead removal) and after 5-6 days of inhibitor culture (FIG. 1, FIG. 3). […]

For test [4], the system named is rituximab CAR-T cells. The test can be described thus: Antigen-independent activation and exhaustion marker expression by flow cytometry, rituximab CAR-T cells. The settings on record: 5 days inhibitor culture, no antigen, vs vehicle (DMSO), CAL-101 1 μM, AZD5363 1 μM. Format: cell-based, human.
Excerpt: FIG. 1A-G. Pharmacological inhibition of PI3K/AKT pathway modulates antigen-independent CAR-T cell activation. (A) Table of pharmacological inhibitors used during ex vivo expansion of rituximab CAR-T cells (left). Simplified schematic of the PI3K/AKT signaling axis where black arrows represent activation (right). (B) Activation marker expression by CAR^+ T cells in the absence of antigen stimulation after 5 days of pharmacological modulation. Data bars indicate the means of technical triplicates±1 S.D. The bars in FIG. 1B represent data from, untreated, vehicle, CAL-101, AZD5363, Rapamycin, MYCi975, and Betulin, respectively, from left to right. (C) TNF-α production CAR^+ T cells in the absence of antigen stimulation as quantified by intracellular flow cytometry. Data bars indicate the means of technical triplicates±1 S.D. The bars in FIG. 1B and FIG. 1C represent data from, untreated, vehicle, CAL-101, AZD5363, Rapamycin, MYCi975, and Betulin, respectively, from left to right. (D) Proliferation of CAR^+ T cells stained with CellTrace Violet (CTV) dye was assayed after a 4-day culture in the absence of target cells or exogenous cytokines. Data shown in the histogram correspond to one of technical triplicates shown in the bar graph. The bars FIG. 1D represent data from, EGFRt, untreated, vehicle, CAL-101, AZD5363, Rapamycin, MYCi975, and Betulin, respectively, from left to right. (E) % distribution of T-cell subtypes in CAR^+ T cells after 5 days of pharmacological modulation. Data bars indicate the means of technical triplicates±1 S.D. (F) Rituximab CAR-T cell fold expansion after 6 days of inhibitor culture was tracked. T-cell fold expansion was normalized to the untreated control with each data point representing biological replicates collected from healthy donors. The bars FIG. 1F represent data from, EGFRt, vehicle, CAL-101, AZD5363, Rapamycin, MYCi975, and Betulin, respectively, from left to right. (G) A 24-hr lysis assay of CD20 CAR-T cells against Raji target cells at three effector-to-target (E:T) ratios. Data bars indicate the means of technical triplicates±1 S.D. Percent lysis was normalized to cell counts in target-only wells. […] In (B)-(F), results are representative two independent experiments using cells from of two heathy donors. Statistical significance in panels B, C, and D was determined by two-tailed Student's t test with Sidak correction for multiple comparisons. * p<0.05, ** p<0.01, *** p<0.001, n.s. not statistically significant. […]
as §2, with “3). T-cell subtype of CAR-T cells was evaluated by antibody staining for CD45RO (VioBlue®, clone REA611, Miltenyi #130-119-620) and CD62L (APC, clone DREG56, Invitrogen #17-0629-42) after 5-6 days of inhibitor culture (FIG. 1, FIG. 3).” for “3).”
Background: In flow cytometry, cells or beads pass a laser one at a time.

Turning to `CC[C@H](Nc1ncnc2[nH]cnc12)c1nc2cccc(F)c2c(=O)n1-c1ccccc1` [CAL-101], the “prolonged median survival compared to vehicle (DMSO)-treated rituximab CAR-T cells” value in the test on Raji tumor xenografts (NSG mice, Raji i.v.) is recorded as 1.5 folds.

For the compound `CO[C@H]1C[C@@H]2CC[C@@H](C)[C@@](O)(O2)C(=O)C(=O)N2CCCC[C@H]2C(=O)O[C@H]([C@H](C)C[C@@H]2CC[C@@H](O)[C@H](OC)C2)CC(=O)[C@H](C)/C=C(\C)[C@@H](O)[C@@H](OC)C(=O)[C@H](C)C[C@H](C)/C=C/C=C/C=C/1C` [rapamycin, Rapamycin], the “prolonged median survival compared to vehicle (DMSO)-treated rituximab CAR-T cells” value in the test with Raji tumor xenografts (NSG mice, Raji i.v.) is recorded as 1.8 folds.

Turning to AZD5363, in the test on rituximab CAR-T cells [1], the antigen-independent cell division result is listed as “significantly reduced”. In addition, the “tumor outgrowth / tumor progression” value with Raji tumor xenografts (NSG mice, Raji i.v., preconditioned rituximab CAR-T cells, bioluminescence, vs vehicle control) was “delayed tumor outgrowth”. The “prolonged median survival compared to vehicle (DMSO)-treated rituximab CAR-T cells” value in the test with Raji tumor xenografts (NSG mice, Raji i.v.) is reported as 1.6 folds. Also, in the test on Raji tumor xenografts (human CD45+EGFRt+ cells in peripheral blood, day 8 after first T-cell dose, vs control), the “in vivo expansion of CAR-T cells” value was “significantly increased”. In addition, the “lysis of Raji tumor cells” value with Raji target cells was “clustered together”. Also, the “TNF-α production in the absence of antigen stimulation” value with rituximab CAR-T cells [2] is reported as “significantly reduced”. Further, in the test with rituximab CAR-T cells [3], the “fraction of naïve and stem-cell memory T (Tn/scm) cells / T-cell differentiation” value is on record as “preserved a greater fraction”. Moreover, the “antigen-independent expression of activation and exhaustion markers” value in the test with rituximab CAR-T cells [4] is listed as “significantly reduced”.

Values taken from patent publication US20250345426A1, “METHODS FOR MAKING AND USING THERAPEUTIC CELLS” (THE REGENTS OF THE UNIVERSITY OF CALIFORNIA, priority 2022, published 2025).
